# Data published in patent US10590462B2, “Probes and assays for measuring E3 ligase activity” (NORTHWESTERN UNIVERSITY, priority 2014, dated 2020).
# Tested on: Rsp5 HECT domain
# Assay: UbiFlu real-time fluorescence polarization kinetics with Rsp5 HECT domain
# Format: biochemical, S. cerevisiae
# Settings: in the presence of 8× SFlu
smiles,measurement,value
O=C1OC2(c3ccc(O)cc3Oc3cc(O)ccc32)c2ccc(NC(=S)NCCS)cc21 [SFlu],inhibition of UbiFlu consumption,no inhibition
